Measured values taken from article PMC4931907 (eLife, 2016).

What was measured:
[1] = cited from earlier work
[2] = target: T1, p300 (Homo sapiens, UniProt Q09472); test: In vitro HAT assay with recombinant p300, histones and 14C acetyl-CoA; assay type: biochemical; settings: for IC50: in vitro HAT assay, recombinant p300 and histones, read-out: IC50, p300 acetyltransferase activity
T1 construct: in vitro acetylation assays with purified histones and a recombinant p300 catalytic domain; purchased Enzo Life Sciences
T1 sequence (Q09472 1287-1663 limits assumed): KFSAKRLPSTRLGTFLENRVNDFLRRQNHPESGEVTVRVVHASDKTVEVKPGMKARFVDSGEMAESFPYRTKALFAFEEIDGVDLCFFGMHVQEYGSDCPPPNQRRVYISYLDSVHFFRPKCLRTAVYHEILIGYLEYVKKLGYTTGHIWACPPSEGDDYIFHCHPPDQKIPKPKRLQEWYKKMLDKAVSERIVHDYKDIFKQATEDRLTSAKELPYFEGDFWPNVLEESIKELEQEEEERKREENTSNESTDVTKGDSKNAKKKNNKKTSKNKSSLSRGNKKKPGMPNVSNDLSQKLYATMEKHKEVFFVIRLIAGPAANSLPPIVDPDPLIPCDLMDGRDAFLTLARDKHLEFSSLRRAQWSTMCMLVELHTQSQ
Experimental: (§1) To determine whether salicylate inhibits p300 and other acetyltransferases, we used in vitro acetylation assays with purified histones and a recombinant p300 catalytic domain.
(§2) Figure 1. Salicylate inhibits CBP/p300 in vitro. (A) Recombinant p300, CBP, GCN5, or PCAF and histones were incubated with ^14C-labeled acetyl-CoA with or without sodium salicylate, separated by SDS-PAGE, analyzed by autoradiography, and quantified with Image J software. Acetylation levels are relative to those in untreated controls. (B) Thermal stability assay for sodium salicylate binding to the p300 HAT domain. Tm, melting temperature. (C) and (D) Lineweaver-Burk plots showing kinetic analysis of p300 acetyltransferase inhibition by sodium salicylate. Histone acetylation was measured with several concentrations of acetyl-CoA (C) or histone (D) in the presence or absence of sodium salicylate. DOI: http://dx.doi.org/10.7554/eLife.11156.003 Figure 1—figure supplement 1. […] (A) Dose-response data for inhibition of p300 by salicylate and salicyl-CoA. Acetylation of an H4(3–14) peptide was monitored using direct microfluidic mobility shift analysis as previously described ([Montgomery et al., 2014]; [Fanslau et al., 2010]). Error is given as the 95% confidence interval. […] Error is given as the 95% confidence interval. DOI: http://dx.doi.org/10.7554/eLife.11156.004 [drawing 1] TEXT PRINTED IN THE PICTURE: (A) Salicylate: p300 IC50 (mM): 6.12; Confidence Interval [CI95] (mM): 5.2–7.2 | (A) Salicyl-CoA: p300 IC50 (mM): […]; Confidence Interval [CI95] […] (mM): 0.78–1.4 | (B) Diflunisal-CoA: p300 IC50 (mM): 0.02; Confidence Interval [CI95] (mM): 0.02–0.03
Recombinant HAT ([…]), either p300, CBP, PCAF, or GCN5 (Enzo Life Sciences), and 10 µg of histones (Sigma) were incubated with sodium salicylate (Sigma) in reaction buffer (50 mM HEPES, pH 8.0, 10% glycerol, 1 mM) at 30°C for 30 min and then with 0.1 mCi of ^14C acetyl-CoA at 30°C for 60 min. Reactions were stopped by adding 6x sample buffer and analyzed by SDS-PAGE. The gels were dried, and signals were obtained by autoradiography and quantified with Image J software. To quantify acetylated histone levels, we generated a standard curve from signals of lanes loaded with […] of ^14C labeled histones.

[3] = target: T1, p300; test: p300 inhibition by direct microfluidic mobility shift analysis, H4(3–14) peptide; assay type: biochemical; settings: microfluidic mobility shift, H4(3–14) peptide, 5 μM acetyl-CoA
Experimental: as §2
Salicyl-CoA and diflunisal-CoA were synthesized from their parent carboxylic acids and HPLC purified according to previously reported methods ([Padmakumar et al., 1997]). The purity of each acyl-CoA was confirmed by analytical HPLC prior immediately prior to utilization ([Montgomery et al., 2014]; [Fanslau et al., 2010]). P300 inhibition assays were performed using direct microfluidic mobility shift analysis as previously described. Briefly, p300 reaction mixture (50 mM HEPES, pH 7.5, 50 mM NaCl, 2 mM EDTA, 2 mM DTT, 0.05% Triton-X-100, 50 nM p300, 2 μM FITC-histone H4 peptide) was plated in 384-well plates and allowed to equilibrate at room temperature for 10 min. Reactions were initiated by addition of acetyl-CoA (final concentration = 5 μM), bringing the final assay volume to 30 μL. Assays were quenched after 10 min (<15% product accumulation) by addition of 5 μL of 0.5 M neutral hydroxylamine and transferred to a Perkin-Elmer Lab-Chip EZ-Reader instrument for analysis. Separation conditions were: downstream voltage of −500 V, upstream voltage of −2500 V, and a pressure of −1.5 psi. Percent conversion was calculated by ratiometric measurement of substrate/product peak heights. Percent activity represents the percent conversion of KAT reactions treated with inhibitors relative to untreated control KAT reactions, and corrected for nonenzymatic acetylation. Dose-response analysis of p300 inhibition was performed in triplicate and analyzed by nonlinear least-squares regression fit to Y = 100/(1 + 10∧(Log IC50 – X)*H), where H = Hill slope (variable). IC50 values represent the concentration that inhibits 50% of KAT activity. Calculations were performed using Prism 6 (GraphPad) software.

[4] = tested on: AML1-ETO fusion protein; test: AML1-ETO K24/K43 acetylation in Kasumi-1 cells (immunoprecipitation, Western blot); assay type: cell-based, human; settings: Kasumi-1, 24 hr; salicylate 4 or 8 mM, diflunisal 100 or 200 μM
Description: Previously, we reported that the leukemogenicity of the AML1-ETO fusion protein, generated by a t(8;21) translocation in acute myelogenous leukemia, is regulated by p300-mediated acetylation of lysine 43 of the fusion protein ([Wang et al., 2011]).
Figure 4. […] (B) Kasumi-1 and AE9a cells treated or not with salicylate were counted by trypan-blue exclusion under light microscopy. […] The percentage of sub-G1 cells is shown. […] Cells were counted by trypan-blue exclusion under light microscopy. […] DOI: http://dx.doi.org/10.7554/eLife.11156.011
AML1-ETO protein in the lysate was immunoprecipitated with an anti-ETO antibody (Santa Cruz Biotechnology). Antibodies against AML1 and acetylated AML1-ETO K24/K43 (generated in the Nimer lab) were used for Western blotting.

[5] = target: T2, CBP (Homo sapiens, UniProt Q92793); test: In vitro HAT assay with recombinant CBP, histones and 14C acetyl-CoA; assay type: biochemical; settings: read-out: IC50, CBP-mediated acetyltransferase activity
T2 construct: purchased Enzo Life Sciences
T2 sequence (Q92793 whole entry): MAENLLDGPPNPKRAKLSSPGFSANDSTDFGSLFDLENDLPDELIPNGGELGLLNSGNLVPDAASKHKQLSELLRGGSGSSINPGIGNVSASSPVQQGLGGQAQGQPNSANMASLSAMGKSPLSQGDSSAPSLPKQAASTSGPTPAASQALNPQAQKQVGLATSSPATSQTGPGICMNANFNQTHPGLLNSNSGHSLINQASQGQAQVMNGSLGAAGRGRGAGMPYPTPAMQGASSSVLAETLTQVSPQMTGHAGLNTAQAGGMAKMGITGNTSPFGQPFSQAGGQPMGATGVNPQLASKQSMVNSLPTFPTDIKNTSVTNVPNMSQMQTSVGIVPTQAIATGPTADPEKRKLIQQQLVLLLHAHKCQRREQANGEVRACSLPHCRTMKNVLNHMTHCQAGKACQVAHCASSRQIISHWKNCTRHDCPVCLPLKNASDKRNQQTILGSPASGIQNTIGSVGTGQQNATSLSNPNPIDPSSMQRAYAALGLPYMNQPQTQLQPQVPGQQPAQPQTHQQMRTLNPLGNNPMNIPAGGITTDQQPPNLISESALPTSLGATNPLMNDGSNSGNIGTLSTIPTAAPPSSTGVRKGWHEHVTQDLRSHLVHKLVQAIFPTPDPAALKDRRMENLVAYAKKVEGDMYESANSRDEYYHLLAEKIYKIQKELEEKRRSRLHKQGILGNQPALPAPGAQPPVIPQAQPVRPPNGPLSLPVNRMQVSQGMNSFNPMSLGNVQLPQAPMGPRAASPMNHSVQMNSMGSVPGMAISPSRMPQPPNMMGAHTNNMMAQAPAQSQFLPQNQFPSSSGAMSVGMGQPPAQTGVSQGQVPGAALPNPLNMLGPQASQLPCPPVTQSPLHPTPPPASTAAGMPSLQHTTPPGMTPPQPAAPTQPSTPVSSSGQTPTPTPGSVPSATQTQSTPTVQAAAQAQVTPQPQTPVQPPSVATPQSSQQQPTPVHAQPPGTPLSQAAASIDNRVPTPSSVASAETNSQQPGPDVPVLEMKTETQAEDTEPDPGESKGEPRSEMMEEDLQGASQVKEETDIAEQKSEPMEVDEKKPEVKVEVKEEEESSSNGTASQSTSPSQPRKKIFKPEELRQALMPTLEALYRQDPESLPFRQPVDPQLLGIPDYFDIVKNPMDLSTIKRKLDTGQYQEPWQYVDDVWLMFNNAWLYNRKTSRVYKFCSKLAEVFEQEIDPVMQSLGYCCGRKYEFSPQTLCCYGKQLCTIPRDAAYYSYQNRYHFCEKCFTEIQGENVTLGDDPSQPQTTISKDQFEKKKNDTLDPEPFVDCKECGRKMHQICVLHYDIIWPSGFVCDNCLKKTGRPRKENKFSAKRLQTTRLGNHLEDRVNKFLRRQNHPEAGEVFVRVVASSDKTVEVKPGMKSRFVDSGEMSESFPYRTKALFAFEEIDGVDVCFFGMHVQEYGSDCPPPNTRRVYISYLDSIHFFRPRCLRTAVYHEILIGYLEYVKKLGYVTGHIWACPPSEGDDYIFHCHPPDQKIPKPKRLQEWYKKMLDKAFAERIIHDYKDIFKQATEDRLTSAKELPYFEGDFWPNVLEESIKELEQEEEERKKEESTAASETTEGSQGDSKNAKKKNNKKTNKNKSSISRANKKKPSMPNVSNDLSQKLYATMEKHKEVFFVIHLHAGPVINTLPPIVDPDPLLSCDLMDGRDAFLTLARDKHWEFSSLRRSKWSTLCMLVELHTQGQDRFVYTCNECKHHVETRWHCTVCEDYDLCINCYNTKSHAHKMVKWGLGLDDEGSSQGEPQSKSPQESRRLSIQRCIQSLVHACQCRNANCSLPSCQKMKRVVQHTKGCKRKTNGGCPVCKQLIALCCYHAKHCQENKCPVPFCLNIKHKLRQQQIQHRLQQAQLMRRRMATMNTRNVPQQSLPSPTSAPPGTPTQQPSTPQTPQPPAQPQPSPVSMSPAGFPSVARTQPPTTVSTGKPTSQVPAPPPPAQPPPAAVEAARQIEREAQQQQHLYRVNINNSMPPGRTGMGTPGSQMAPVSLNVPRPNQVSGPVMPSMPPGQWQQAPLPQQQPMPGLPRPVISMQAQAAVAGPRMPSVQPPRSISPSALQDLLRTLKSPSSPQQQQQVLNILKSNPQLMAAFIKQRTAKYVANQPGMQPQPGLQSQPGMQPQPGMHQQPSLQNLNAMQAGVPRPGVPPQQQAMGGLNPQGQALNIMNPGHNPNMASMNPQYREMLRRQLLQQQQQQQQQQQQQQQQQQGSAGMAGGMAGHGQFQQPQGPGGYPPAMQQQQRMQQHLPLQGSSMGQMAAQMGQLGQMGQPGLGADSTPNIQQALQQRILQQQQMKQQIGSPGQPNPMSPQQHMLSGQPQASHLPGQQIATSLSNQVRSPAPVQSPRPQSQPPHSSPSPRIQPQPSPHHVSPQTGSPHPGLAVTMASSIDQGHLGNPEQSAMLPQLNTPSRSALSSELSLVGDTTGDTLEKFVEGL
Experimental: as §1
Figure 1. Salicylate inhibits CBP/p300 in vitro. (A) Recombinant p300, CBP, GCN5, or PCAF and histones were incubated with ^14C-labeled acetyl-CoA with or without sodium salicylate, separated by SDS-PAGE, analyzed by autoradiography, and quantified with Image J software. Acetylation levels are relative to those in untreated controls. (B) Thermal stability assay for sodium salicylate binding to the p300 HAT domain. Tm, melting temperature. […] Histone acetylation was measured with several concentrations of acetyl-CoA (C) or histone (D) in the presence or absence of sodium salicylate. […] Acetylation of an H4(3–14) peptide was monitored using direct microfluidic mobility shift analysis as previously described ([Montgomery et al., 2014]; [Fanslau et al., 2010]). […]
Recombinant HAT ([…]), either p300, CBP, PCAF, or GCN5 (Enzo Life Sciences), and 10 µg of histones (Sigma) were incubated with sodium salicylate (Sigma) in reaction buffer (50 mM HEPES, pH 8.0, 10% glycerol, 1 mM) at 30°C for 30 min and then with 0.1 mCi of ^14C acetyl-CoA at 30°C for 60 min. Reactions were stopped by adding 6x sample buffer and analyzed by SDS-PAGE. […]

Compound | Plasma concentrations of diflunisal ([1]; after daily oral administration, ref Nuernberg et al., 1991, Mano et al., 2006) | IC50 [2] | IC50 [3] | K24 and K43 acetylation of AML1-ETO [4] | Plasma concentrations of salicylate ([1]; humans after oral administration, ref Goldfine et al., 2010, 2013) | Salicylate plasma concentrations in patients ([1]; patients taking salicylic acid 3–4 g/day, no reference given) | Mode of p300 inhibition against acetyl-CoA ([2]; Lineweaver-Burk, various concentrations of acetyl-CoA) | Mode of p300 inhibition against histones ([2]; Lineweaver-Burk, various concentrations of histone) | IC50 [5]
O=C(O)c1cc(-c2ccc(F)cc2F)ccc1O [diflunisal] | 150 to 350 µM | 0.996 mM | 1.05 mM | decreased in a dose-dependent manner |  |  |  |  | 
O=C(O)c1ccccc1O [salicylate, salicylic acid] |  | 10.2 mM | 6.12 mM | decreased in a dose-dependent manner | 1000 to 3000 µM | 1 to 3 mM | direct competitive p300 inhibition against acetyl-CoA | noncompetitive inhibition against histones | 5.7 mM
